# Patent US20110190235A1, “BORON-CONTAINING SMALL MOLECULES AS ANTIPROTOZOAL AGENTS” (Anacor Pharmaceuticals, Inc., priority 2009, published 2011)
# Read-outs that look alike come from different tables or passages of the source.
# Key:
# [1] = system: bloodstream-form trypanosome T. brucei brucei 427 strain; assay: Trypanosoma brucei brucei high-throughput in vitro drug sensitivity assay (resazurin); assay type: cell-based; conditions: Trypanosoma brucei
# [2] = L929 cytotoxicity evaluation (resazurin); assay type: cell-based; conditions: mouse, L929 mouse fibroblast cells; 72 hrs incubation; read-out: Cytotox L-929 IC50
# Description: For evaluation of compound effects on mammalian cells, L929 mouse fibroblast cells were used. Cells were maintained as adherent cultures in T-25 vented cap flasks in a humidified incubator at 37° C. in the presence of 5% CO2. Culture media was D-MEM supplemented with 10% fetal bovine serum and 1% penicillin/streptomycin. L929 cells were maintained below confluent levels by sub-culturing at 1:10 dilution twice weekly using 0.05% trypsin for detachment.
# Sub-confluent L929 cells were trypsinized, resuspended in fresh media and 10 uL was counted using hemocytometer to determine cell concentration. Cells were diluted to 1×10^4/mL in DMEM, dispensed (100 uL) into 96-well plates using a Multidrop 384 dispenser and allowed to attach overnight. Spent media was replaced with 99.5 uL fresh D-MEM and compounds to be tested were serially diluted in DMSO and 0.5 uL added using a Biomek NX liquid handler. Plates were incubated with compounds for 72 hrs at 37° C. with 5% CO2. Resazurin (20 uL of 12.5 mg/ml stock) from Sigma-Aldrich was added to each well and plates were incubated for an additional 3-4 hrs. Assay plates were read using an EnVision plate reader at an excitation wavelength of 544 nm and emission of 590 nm. Single data points were used to generate sigmoidal dose response curves and determine IC50 values using XLfit curve fitting software from IDBS (Guildford, UK).
# [3] = 72 hrs incubation, read-out: T.b. brucei IC50
SMILES,"IC50 [1, 3]",IC50 at 72 h [2],"IC50 ([1]; 72 h, read-out: T.b. brucei IC50 (ug/mL))"
"CC1(C)OB(O)c2cc(NC(=O)c3cccc(C(F)(F)F)c3F)ccc21 [compound 83, 2-Fluoro-N-(1-hydroxy-3,3-dimethyl-1,3-dihydro-benzo[c][1,2]oxaborol-6-yl)-3-trifluoromethyl-benzamide]",0.543 µg/mL,> 10 µg/mL,
"CC1(C)OB(O)c2cc(NC(=O)c3ccc(C(F)(F)F)cc3F)ccc21 [compound 84, 2-Fluoro-N-(1-hydroxy-3,3-dimethyl-1,3-dihydro-benzo[c][1,2]oxaborol-6-yl)-4-trifluoromethyl-benzamide]",0.533 µg/mL,> 10 µg/mL,
"CC1(C)OB(O)c2cc(NC(=O)c3cc(C(F)(F)F)ccc3F)ccc21 [compound 85, 2-Fluoro-N-(1-hydroxy-3,3-dimethyl-1,3-dihydro-benzo[c][1,2]oxaborol-6-yl)-5-trifluoromethyl-benzamide]",1.14 µg/mL,> 10 µg/mL,
"CC1(C)OB(O)c2cc(NC(=O)c3c(F)cccc3C(F)(F)F)ccc21 [compound 86, 2-Fluoro-N-(1-hydroxy-3,3-dimethyl-1,3-dihydro-benzo[c][1,2]oxaborol-6-yl)-6-trifluoromethyl-benzamide]",0.425 µg/mL,> 10 µg/mL,
"Cc1cc(F)ccc1C(=O)Nc1ccc2c(c1)B(O)OC2(C)C [compound 87, 4-Fluoro-N-(1-hydroxy-3,3-dimethyl-1,3-dihydro-benzo[c][1,2]oxaborol-6-yl)-2-methyl-benzamide]",3.88 µg/mL,> 10 µg/mL,
"CC1(C)OB(O)c2cc(NC(=O)c3cc(F)ccc3C(F)(F)F)ccc21 [compound 88, 5-Fluoro-N-(1-hydroxy-3,3-dimethyl-1,3-dihydro-benzo[c][1,2]oxaborol-6-yl)-2-trifluoromethyl-benzamide]",0.313 µg/mL,> 10 µg/mL,
"Cc1ccc(C(=O)Nc2ccc3c(c2)B(O)OC3(C)C)c(Cl)c1 [compound 89, 2-Chloro-N-(1-hydroxy-3,3-dimethyl-1,3-dihydro-benzo[c][1,2]oxaborol-6-yl)-4-methyl-benzamide]",0.152 µg/mL,> 10 µg/mL,
"CC1(C)OB(O)c2cc(NC(=O)c3cc(C(F)(F)F)ccc3Cl)ccc21 [compound 90, 2-Chloro-N-(1-hydroxy-3,3-dimethyl-1,3-dihydro-benzo[c][1,2]oxaborol-6-yl)-5-trifluoromethyl-benzamide]",0.514 µg/mL,> 10 µg/mL,
Cc1cc(Br)ccc1C(=O)Nc1ccc2c(c1)B(O)OC2(C)C [compound 91],0.786 µg/mL,> 10 µg/mL,
CC1(C)OB(O)c2cc(NC(=O)c3cc([N+](=O)[O-])ccc3Cl)ccc21 [compound 92],0.158 µg/mL,2.68 µg/mL,
CC1(C)OB(O)c2cc(NC(=O)c3ccc([N+](=O)[O-])cc3Cl)ccc21 [compound 93],0.197 µg/mL,> 10 µg/mL,
COc1ccc(C(=O)Nc2ccc3c(c2)B(O)OC3(C)C)c(OC)c1 [compound 94],0.4 µg/mL,> 10 µg/mL,
"COc1ccc(C(=O)Nc2ccc3c(c2)B(O)OC3(C)C)cc1C [compound 95, N-(1-Hydroxy-3,3-dimethyl-1,3-dihydro-benzo[c][1,2]oxaborol-6-yl)-4-methoxy-3-methyl-benzamide]",0.86 µg/mL,> 10 µg/mL,
"COc1cccc(OC)c1C(=O)Nc1ccc2c(c1)B(O)OC2(C)C [compound 96, N-(1-Hydroxy-3,3-dimethyl-1,3-dihydro-benzo[c][1,2]oxaborol-6-yl)-2,6-dimethoxy-benzamide]",2.72 µg/mL,> 10 µg/mL,
"C=Cc1ccc(C(=O)Nc2ccc3c(c2)B(O)OC3(C)C)c(Cl)c1 [compound 97, 2-Chloro-N-(1-hydroxy-3,3-dimethyl-1,3-dihydro-benzo[c][1,2]oxaborol-6-yl)-4-vinyl-benzamide]",,> 10 µg/mL,0.05 µg/mL
"C=CCc1ccc(C(=O)Nc2ccc3c(c2)B(O)OC3(C)C)c(Cl)c1 [compound 98, 4-Allyl-2-chloro-N-(1-hydroxy-3,3-dimethyl-1,3-dihydro-benzo[c][1,2]oxaborol-6-yl)-benzamide]",0.091 µg/mL,> 10 µg/mL,

# Continued, in another order:
"IC50 [1, 3]",SMILES,IC50 at 72 h [2],"IC50 ([1]; 72 h, read-out: T.b. brucei IC50 (ug/mL))"
0.19 µg/mL,"CC(C)=Cc1ccc(C(=O)Nc2ccc3c(c2)B(O)OC3(C)C)c(Cl)c1 [compound 99, 2-Chloro-N-(1-hydroxy-3,3-dimethyl-1,3-dihydro-benzo[c][1,2]oxaborol-6-yl)-4-(2-methyl-propenyl)-benzamide]",8.6 µg/mL,
0.077 µg/mL,"C=C(C)c1ccc(C(=O)Nc2ccc3c(c2)B(O)OC3(C)C)c(Cl)c1 [compound 100, 2-Chloro-N-(1-hydroxy-3,3-dimethyl-1,3-dihydro-benzo[c][1,2]oxaborol-6-yl)-4-isopropenyl-benzamide]",9.55 µg/mL,
0.125 µg/mL,"CCCc1ccc(C(=O)Nc2ccc3c(c2)B(O)OC3(C)C)c(Cl)c1 [compound 102, 2-Chloro-N-(1-hydroxy-3,3-dimethyl-1,3-dihydro-benzo[c][1,2]oxaborol-6-yl)-4-propyl-benzamide]",> 10 µg/mL,
0.184 µg/mL,CC(C)Cc1ccc(C(=O)Nc2ccc3c(c2)B(O)OC3(C)C)c(Cl)c1 [compound 103],> 10 µg/mL,
1.12 µg/mL,"CC1(C)OB(O)c2cc(NC(=O)c3c(F)ccc(F)c3Cl)ccc21 [compound 104, 2-Chloro-3,6-difluoro-N-(1-hydroxy-3,3-dimethyl-1,3-dihydro-benzo[c][1,2]oxaborol-6-yl)-benzamide]",> 10 µg/mL,
0.788 µg/mL,"CC1(C)OB(O)c2cc(NC(=O)c3c(Cl)cc(Cl)cc3Cl)ccc21 [compound 105, 2,4,6-Trichloro-N-(1-hydroxy-3,3-dimethyl-1,3-dihydro-benzo[c][1,2]oxaborol-6-yl)-benzamide]",> 10 µg/mL,
> 5 µg/mL,"COc1cc(C(=O)Nc2ccc3c(c2)B(O)OC3(C)C)cc(OC)c1OC [compound 106, N-(1-Hydroxy-3,3-dimethyl-1,3-dihydro-benzo[c][1,2]oxaborol-6-yl)-3,4,5-trimethoxy-benzamide]",> 10 µg/mL,
0.378 µg/mL,"Cc1ccc(Cl)c(C(=O)Nc2ccc3c(c2)B(O)OC3(C)C)c1F [compound 108, 6-Chloro-2-fluoro-N-(1-hydroxy-3,3-dimethyl-1,3-dihydro-benzo[c][1,2]oxaborol-6-yl)-3-methyl-benzamide]",> 10 µg/mL,
0.379 µg/mL,"CC1(C)OB(O)c2cc(NC(=O)c3c(C(F)(F)F)ccc(Cl)c3F)ccc21 [compound 109, 3-Chloro-2-fluoro-N-(1-hydroxy-3,3-dimethyl-1,3-dihydro-benzo[c][1,2]oxaborol-6-yl)-6-trifluoromethyl-benzamide]",> 10 µg/mL,
> 5 µg/mL,"CC1(C)OB(O)c2cc(NC(=O)c3c(F)c(F)c(F)c(F)c3F)ccc21 [compound 110, 2,3,4,5,6-Pentafluoro-N-(1-hydroxy-3,3-dimethyl-1,3-dihydro-benzo[c][1,2]oxaborol-6-yl)-benzamide]",> 10 µg/mL,
1.23 µg/mL,"CC1(C)OB(O)c2cc(NC(=O)c3cccc4ccccc34)ccc21 [compound 111, Naphthalene-1-carboxylic acid (1-hydroxy-3,3-dimethyl-1,3-dihydro-benzo[c][1,2]oxaborol-6-yl)-amide]",> 10 µg/mL,
